Data set [1] is described as follows: octanol-PBS pH 7.4 partition coefficient (log D7.4) assay. Format: physicochemical. The following applies: octanol/0.01 M phosphate buffer pH 7.4, 24 hours, LC/MS/MS. The protocol: A 1 μL volume of a 1 mM stock solution of the compound in dimethyl sulfoxide (DMSO) was added to 500 μL 0.01 M phosphate buffer pH 7.4 (saturated with octanol) and 500 μL of octanol (saturated with 0.01 M phosphate buffer). […] Samples were prepared in triplicate.

A short description of data set [2]: Concentration achieved in formulations and excipient mixtures. Format: physicochemical. The following applies: in the (oral) pharmaceutical compositions described. The protocol: In initial formulation work for the amidine compounds described herein, in particular 3-[2-(4-carbamimidoyl-phenylcarbamoyl)-5-methoxy-4-vinyl-phenyl]-6-(cyclopropylmethyl-carbamoyl)-pyridine-2-carboxylic acid, extensive studies were carried out to identify a suitable mixture of excipients to produce the oral formulation described herein.
Specifically, a variety of approaches were taken to develop suitable oral formulations of 3-[2-(4-carbamimidoyl-phenylcarbamyl)-5-methoxy-4-vinyl-phenyl]-6-(cyclopropylmethyl-carbamoyl)-pyridine-2-carboxylic acid. The approaches taken included use of a variety of hydrophilic polymers, including α-cyclodextrin and a polyanionic 3-cyclodextrin derivative with a sodium sulfonate salt separated from the lipophilic cavity by a butyl ether or sulfobutylether spacer group in combination with a variety of co-solvents. In addition, the compound was evaluated in formulations created by a number of different technologies (such as dry blends, nanosuspensions, solid dispersion and emulsions) using a variety of approaches.

A short description of data set [3]: Polymorphic conversion of Form A under relative humidity. Format: physicochemical. The settings on record: RH 43%, 75% and 100%, room temperature. The source says: In another embodiment, pharmaceutical compositions of Form A, in particular the oral pharmaceutical compositions described herein, when administered to a subject provide for increased bioavailability of the compound as compared to amorphous 3-[2-(4-carbamimidoyl-phenylcarbamoyl)-5-methoxy-4-vinylphenyl]-6-(cyclopropylmethyl-carbamoyl)-pyridine-2-carboxylic acid and salts thereof and other crystalline forms. In another embodiment, pharmaceutical compositions of Form A, in particular the oral pharmaceutical compositions described herein, when administered to a subject for treating a condition, is sufficient to affect such treatment. In another embodiment, pharmaceutical compositions of Form A, in particular the oral pharmaceutical compositions described herein, when administered to a subject for treating a condition, is sufficient to affect such treatment when dosed 1 to 3 times per day or less (such as 1 to 2 times). In another embodiment, pharmaceutical compositions of Form A, in particular the oral pharmaceutical compositions described wherein when administered to a subject provide for a therapeutically effective amount of the compound of at least 10 ng/ml, at least 15 ng/ml or at least 25 ng/ml in the blood of the subject for a period of at least from two hours to four hours after administration to a subject. […]

A short description of data set [4]: Aqueous solubility assay in buffer and simulated gastric/intestinal fluids. The settings on record: 37 °C, thermodynamic from solid, Observed Solubility, Target 100 μM, 24 hours. The protocol:
The target concentration in each solution was 100 μM. […] The aqueous solutions were added (1 mL) to the dried samples and mixed at 400 rpm at 37° C. on an orbital plate shaker. […] Samples were prepared in triplicate. Testosterone and verapamil were used as reference compounds.

Each structure is given as a SMILES string. Values after ≈ are worked out from the molar mass of the structure shown.

The logD is lipophilicity at a set pH, counting ionised and neutral species. Read a low logD as lower lipophilicity. As a reminder, the solubility is the concentration that dissolves in the medium under given conditions. The low end stands for little dissolved substance, the high end for much dissolved substance.

In data set [1], `C[C@@H]1C[C@H]2[C@@H]3CCC4=CC(=O)C=C[C@]4(C)[C@@]3(F)[C@@H](O)C[C@]2(C)[C@@]1(O)C(=O)CO` [Dexamethasone, reference compound] gave a pH-dependent lipophilicity (logD) at 24 h of 1.5.
Take `C=Cc1cc(C(=O)Nc2ccc(C(=N)N)cc2)c(-c2ccc(C(=O)NCC3CC3)nc2C(=O)O)cc1OC.Cl` [Form A, 3-[2-(4-Carbamimidoylphenylcarbamoyl)-5-methoxy-4-vinylphenyl]-6-(cyclopropylmethylcarbamoyl)pyridine-2-carboxylic acid hydrochloride]: the concentration solubilized entry in data set [2] was “greater than 140 mg/ml”. Moreover, in data set [3], the “conversion to other polymorphic forms” value is reported as “not observed”.
As to `C[C@]12CC[C@H]3[C@@H](CCC4=CC(=O)CC[C@@]43C)[C@@H]1CC[C@@H]2O` [Testosterone, reference compound], the solubility at 24 h in data set [4] (fassgf or other biorelevant, Fasted-State SGF) was 43 µM (≈ 12.4 µg/mL); in data set [4] (fassgf or other biorelevant, Fed-State SGF) it was 27 µM (≈ 7.79 µg/mL); in data set [4] (fassif, Fasted-State SIF), 35 µM (≈ 10.1 µg/mL); in data set [4] (fessif, Fed-State SIF), 36 µM (≈ 10.4 µg/mL); in data set [4] (pH 7.4, aqueous buffer, 0.1M phosphate buffer pH 7.4, 37° C.), 42 µM (≈ 12.1 µg/mL).

Values taken from patent US10905683B2, “Compositions and uses of amidine derivatives” (BIOCRYST PHARMACEUTICALS, INC., priority 2014, dated 2021).
